In this experiment the test system is MDA-MB-468 breast. Briefly: growth of human tumour cells (NCI), 48 h.

Several values for one entry are separate records, joined by “and”; a condition that tells them apart may be missing. Equal values may be shown once.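 Protocol summary: plate cells (96-well), add compound at 5 concentrations, incubate 48 h, interpolate endpoints linearly. Abbreviation: GI50, concentration required for 50% inhibition of growth. TGI denotes the concentration required for complete inhibition of growth.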 A value given as a limit tells only on which side of the number the result lay.

Turning to `CCCCOc1ccc(/C=N/Nc2cc(C)nc3ccc(Cl)cc23)cc1`, the GI50 was 1530 nM and the TGI was 2970 nM.
Taken in the same sequence, the figures for `ClCC#CCSc1ncnc2c1ncn2CC#CCCl` were 1430 nM and 3200 nM.
For the molecule `CN(C)CCNc1nc2ccccc2c2c(=O)c3ccccc3sc12`, the GI50 is 1450 nM and the TGI worked out at 3310 nM.
As to `O=C(O)C(=O)CBr`, the GI50 was > 48300 nM and 16900 nM; the TGI is > 72400 nM and 33300 nM.
As to `CN1CCN(CCOc2ccc(-c3cnc4c(-c5ccc(F)cc5)cnn4c3)cc2)CC1`, the GI50 was 1540 nM and the TGI was 3190 nM.
For the molecule `CCOC(=O)c1ccccc1-c1c2ccc(=[N+](C)C)cc-2oc2cc(N(C)C)ccc12`, the GI50 was 46.9 nM and the TGI was 410 nM.
`C=CCCC(=O)N1C=CC(=O)[C@H](O)[C@@H]1/C=C/c1ccccc1`: the GI50 was 5120 nM and the TGI was determined as 22300 nM.
With `O=C(CCl)Nc1cc(O)c2c(c1)C(=O)c1cccc(O)c1C2=O`, the GI50 is 1040 nM and the TGI was 2860 nM.
Taken in the same sequence, the figures for `CC(C)(C)Nc1nc2c(OCCc3ccccc3)cccn2c1-c1cccc(F)c1` were 3510 nM and 22900 nM.
On to `CCCn1c(N)c(C(=O)CNc2ccc(I)cc2)c(=O)[nH]c1=O`, for which the TGI was above 100000 nM.
As to `c1ccc2nc(OCCN3CC3)ccc2c1`, the GI50 is 2770 nM and the TGI was 7870 nM.
`CCCCCc1c(C)[nH]c(/C=C2\N=C(c3ccc[nH]3)C=C2OCc2ccccc2)c1C`: the GI50 is 96.9 nM and 23.5 nM; the TGI was 764 nM and 268 nM.
On to `Oc1ccc(Cl)cc1-c1cc(-c2ccc(F)cc2)n[nH]1`, for which the GI50 was 1350 nM and the TGI is 5350 nM.
Turning to `Cn1ncc(-c2ccc3c(=O)[nH]nc(CN)c3c2)c1-c1c(F)cc2ccccc2c1C#N`, the GI50 was 7020 nM and the TGI was 21100 nM.
For `CCOc1cc(C(C)(C)C)ccc1C1=N[C@@](C)(c2ccc(Cl)cc2)[C@@](C)(c2ccc(Cl)cc2)N1C(=O)N1CCN(CCS(C)(=O)=O)CC1`, the GI50 was 2100 nM and the TGI came to 6340 nM.
The matching figures for `O=[As]c1ccc(C(=O)c2ccc(Oc3ccccc3)cc2)cc1` (stereo not given): 26.6 nM and 101 nM.
Regarding `CC1(C)[C@@H](OC(N)=O)C=C[C@]2(C=O)[C@H]3CC[C@]4(C)[C@@H](c5ccc(=O)oc5)[C@@H](Cl)C[C@]4(O)C3=CC[C@@H]12`, the GI50 is 6.13 nM and the TGI was 16.1 nM.
Turning to `OC(COc1cccc2ccccc12)CN1CCN(c2ccccc2Cl)CC1` (stereo not given), the GI50 is 15300 nM and the TGI turned out to be 30100 nM.
On to `COc1ccc2[nH]c(O)c(/C=c3/cc4c(c(-c5ccc(F)cc5)n3)=Nc3ccccc3-4)c2c1`, for which the GI50 was 2220 nM and the TGI turned out to be 5470 nM.
Regarding `COc1cc(-c2nn(-c3ccc(NC(=O)c4cc(Cl)cc(Cl)c4)cc3)cc2-c2ccncc2)ccc1Cl`, the GI50 is above 100000 nM and the TGI is above 100000 nM.
Regarding `COc1cccc(-c2cc(=O)c3cc(Cl)cnc3[nH]2)c1`, the GI50 was 886 nM and the TGI is above 100000 nM.
Taken in the same sequence, the figures for `Nc1c(C(=O)Nc2cccc(Br)c2)sc2nc3c(cc12)C(O)CCC3` (stereo not given) were 237 nM and 31700 nM.
Consider `O=[N+]([O-])c1cc(F)c2cccnc2c1O`, for which the GI50 was 14700 nM and the TGI was found to be 47200 nM.
Regarding `COc1ccc(-c2c(N)n[nH]c2-c2cc(OC)c(OC)c(OC)c2)cc1`, the GI50 was 94.6 nM and the TGI was 2870 nM.
The matching figures for `CC[C@H](NC(=O)[C@H](CS(=O)(=O)CC1CC1)N[C@@H](c1ccc(F)cc1)C(F)(F)F)C(=O)C(=O)NC1CC1`: 49900 nM and above 100000 nM.
The matching figures for `CC(=O)N1CCN(CCOc2ccc(C3CCN(C4=Nn5c(nnc5C(F)(F)F)CC4)CC3)cc2)CC1`: 3720 nM and 61100 nM.
For the molecule `COc1cc([C@@H]2c3cc4c(cc3C(OC3O[C@@H]5COC(C)O[C@H]5[C@H](O)[C@H]3O)C3COC(=O)[C@@H]32)OCO4)cc(OC)c1O` (stereo not given in full), the GI50 is 1100 nM and the TGI is 4500 nM.
As for `COc1cccc(C2=C(c3cn(C)c4cccc(OC)c34)C(=O)NC2=O)c1`, the GI50 is 6880 nM and the TGI is above 25000 nM.
`O=C(Nc1ccc(I)cc1F)c1cc(I)ccc1O`: the GI50 is 808 nM and the TGI came out at 2460 nM.
With `CN(C)CCCOc1c2ccc(Cl)cc2nc2c1oc1ccc(Cl)cc12`, the GI50 was 2120 nM and the TGI turned out to be 7030 nM.
Take `CC(=O)C1(O)Cc2c(O)c3c(c(O)c2C(OC2CC(N)C(O)C(C)O2)C1)C(=O)c1ccccc1C3=O` (stereo not given): the GI50 is 11.9 nM and the TGI is 39.8 nM.
Turning to `C#Cc1cc2c(N)c(C(=O)c3cc(OC)c(OC)c(OC)c3)[nH]c2cc1OC`, the GI50 is 497 nM and the TGI was determined as 43200 nM.
Take `CC(C)(C)C(=O)OCc1nc2cc3c(cc2c(=O)[nH]1)CCC3=O`: the GI50 was above 100000 nM and the TGI is above 100000 nM.
As for `Cc1c(C(=O)O[C@H]2[C@@H]3[C@H](C)CC[C@H]3[C@]3(C)O[C@@]2(C2CCCCC2)C[C@H]3OC(=O)CO)ccc2ccccc12`, the GI50 was 8120 nM and the TGI worked out at 16100 nM.
For the molecule `CO[C@H](C(=O)O)[C@@H]1Cc2cc3cc(OC4CC(OC5CC(O)C(O)C(C)O5)C(O)C(C)O4)c(C)c(O)c3c(O)c2C(=O)[C@H]1OC1CC(OC2CC(OC3CC(C)(O)C(O)C(C)O3)C(O)C(C)O2)C(O)C(C)O1` (stereo not given in full), the GI50 was 159 nM and the TGI is 885 nM.
For the molecule `COC(=O)[C@]12CC[C@@H](C)[C@H](C)[C@@H]1C1=CC[C@@H]3[C@@]4(C)CC(=O)[C@H](OC(=O)c5ccco5)[C@@]5(C)COC(=C45)C[C@@]3(C)[C@]1(C)CC2`, the GI50 was 420 nM and the TGI was above 100000 nM.
Take `CCCCCCNC(=O)Oc1ccc(/C(=C(\C)c2ccccc2)c2ccc(OCCN(CC)CC)cc2)cc1`: the GI50 was 2920 nM and the TGI stood at 9720 nM.
Taken in the same sequence, the figures for `Oc1c(CN2CCOCC2)cc(COCc2ccccc2)c2cccnc12` were 2390 nM and 7190 nM.

The values above are taken from PubChem BioAssay (NCI).
